Entries after “also recorded” stand apart in the source; their conditions may differ. Read-outs that look alike come from different tables or passages of the source.
Columns and labels:
[1] = tested on: HCS; assay: Substrate specificity of HCS; type: biochemical, Cupriavidus sp. KNK-J915; conditions: for Relative activity (%): activity on (R,S)-nipecotamide set to 100, 1% substrate, 30° C., 100 mM phosphate buffer pH 7.0
Experimental: Next, the substrate specificity of HCS was analyzed. The substrate compound was added in a form of a 1% solution. The enzyme reaction was allowed to proceed at 30° C. in 100 mM phosphate buffer (pH 7.0). The resultant solution was analyzed under the high speed liquid chromatography analysis conditions A described in Example 1 or the high speed liquid chromatography analysis conditions B shown below.
High Speed Liquid Chromatography Analysis Condition B
Column: SUMICHIRAL OA-5000 (4.6 mmφ×150 mm, product of Sumika Chemical Analysis Service, Ltd.)
Eluant: 2 mM CuSO4 aqueous solution
(§1) Column temperature: 30° C.
Measurement wavelength: 254 nm

[2] = tested on: purified enzyme (HCS); assay: Selective hydrolysis of racemic carboxylic acid amides with the purified enzyme solution (Examples 8 to 10); type: biochemical, Cupriavidus sp. KNK-J915; conditions: 100 mM phosphate buffer pH 7.0, 30° C.; for conversion ratio: 1% substrate; for optical purity: product acid, 1% racemic substrate
Experimental: To 100 mM phosphate buffer (pH 7.0) were added 1% racemic pipecolic acid amide and the purified enzyme solution obtained in Example 1, and allowed to react at 30° C. Then high speed liquid chromatography analysis was conducted to determine the conversion ratio (%) and optical purity (% e.e.). […] Conversion ratio (%)=P/(S1+P)×100
(§2) (P: amount of product (mol), S1: amount of residual substrate (mol)) Optical purity (% e.e.)=(A−B)/(A+B)×100
(§3) (A represents the amount of the target enantiomer, and B represents the amount of the corresponding enantiomer.)
To 100 mM phosphate buffer solution (pH 7.0) were added 1% racemic indoline carboxylic acid amide and the purified enzyme solution obtained in Example 1. The obtained mixture was allowed to react at 30° C., and then the substrate and product in the reaction liquid were converted into derivatives with acetic anhydride. The conversion ratio (%) and optical purity (% e.e.) were determined by high speed liquid chromatography analysis of the obtained derivatives.
To 100 mM phosphate buffer (pH 7.0) were added 1% racemic phenyl propionic acid amide and the purified enzyme solution obtained in Example 1, and allowed to react at 30° C. The conversion ratio (%) and optical purity (% e.e.) were determined by high speed liquid chromatography analysis.

[3] = tested on: putative amidase derived from Ralstonia eutropha JMP134 strain; assay: Selective hydrolysis of S-enantiomer in racemic N-benzylnipecotamide with culture solution of E. coli HB101 (pNRE); type: biochemical
From the text: Primer 7 (SEQ ID NO:10 in the sequence listing) having the NdeI site added to the initiation codon site, and primer 8 (SEQ ID NO:11 in the sequence listing) having an SacI site immediately downstream of the termination codon were synthesized based on the base sequence (SEQ ID NO:9 in the sequence listing) encoding the putative amidase derived from Ralstonia eutropha JMP134 strain, which has high sequence identity to the base sequence of the present invention derived from Cupriavidus sp. KNK-J915 (FERM BP-10739) determined in Example 3. An amount of 50 μl of a buffer for ExTaq was prepared. This buffer contained the two primers (primer 7 and primer 8, each 50 pmol), chromosomal DNA derived from Ralstonia eutropha JMP134 strain (10 ng), dNTP (each 10 nmol) and ExTaq (2.5 U, product of TAKARA SHUZO Co., Ltd.). Heat denaturation (97° C., 1 minute), annealing (60° C., 1 minute), and an extension reaction (72° C., 1.5 minutes) were repeated for 30 cycles. The reaction fluid was cooled to 4° C. and subjected to agarose gel electrophoresis to confirm amplification of the DNA. […]
To 100 mM phosphate buffer (pH 7.0) were added 1% racemic N-benzylnipecotamide and the culture solution of E. coli HB101 (pNRE) obtained in Example 11, and allowed to react at 30° C. Thereafter, the conversion ratio (%) and optical purity (% e.e.) were determined by high speed liquid chromatography analysis. […]

[4] = tested on: E. coli HB101 (pNCS); assay: Selective hydrolysis of S-enantiomer in racemic nipecotamide with culture solution of E. coli HB101 (pNCS); type: biochemical, Escherichia coli; conditions: pH 8.0, 25 hours, 45° C.; for optical purity: from racemic nipecotamide
Experimental: An amount of 10.1 g of racemic nipecotamide was dissolved in water to prepare a substrate solution having a pH adjusted to 8.0. To 200 ml of the prepared substrate solution was added 2 ml of a culture solution obtained by culturing E. coli HB101 (pNCS) as in Example 6, and stirred for 25 hours at 45° C. After completion of the reaction, the reaction liquid was heated for 30 minutes at 70° C., and centrifuged to remove solid matters including cells. Subsequently, the substrate and the product in the reaction liquid were converted into derivatives with benzyl chloroformate. The obtained derivatives were analyzed by high speed liquid chromatography to determine the conversion ratio (%) and optical purity (% e.e.). […] Conversion ratio (%)=P/(S1+P)×100
as §2, §3
High Speed Liquid Chromatography Analysis Condition
[Analysis of Conversion Ratio]
(§4) Column: YMC-A303 (4.6 mmφ×250 mm, product of YMC Co., Ltd.)
Eluant: 20 mM phosphate aqueous solution (pH 2.5)/acetonitrile=7/3
Column temperature: 35° C.
(§5) Measurement wavelength: 210 nm
[Optical Purity Analysis]
Column: CHIRALPAK AD-RH (4.6 mmφ×150 mm, product of DAICEL CHEMICAL INDUSTRIES, LTD.)
Column temperature: room temperature

[5] = Optimum pH, optimum temperature and thermal stability of the amidase reaction of purified HCS; type: biochemical; conditions: stable at or below this temperature
Experimental: The Optimum pH and optimum temperature of an amidase reaction of the purified enzyme obtained in Example 1, and thermal stability of the enzyme were determined by quantifying N-benzylnipecotic acid produced in the hydrolysis reaction using N-benzylnipecotamide as a substrate, by HPLC. For determination of the optimum pH, the reaction was allowed to proceed at each pH for 1 hour at 30° C., and stopped by addition of acetonitrile. The resultant solution was analyzed under the high speed liquid chromatography analysis conditions A described in Example 1. For determination of the optimum temperature, the reaction was allowed to proceed at each temperature for 1 hour, and stopped by addition of acetonitrile. The resultant solution was analyzed under the high speed liquid chromatography analysis conditions A described in Example 1. For determining the thermal stability, after incubation at each temperature for 30 minutes, the reaction was allowed to proceed for 1 hour, and stopped by addition of acetonitrile. The resultant solution was analyzed under the high speed liquid chromatography analysis conditions A described in Example 1.

[6] = Amidase activity of purified enzyme (production of N-benzylnipecotic acid, HPLC); type: biochemical; conditions: 1% N-benzylnipecotamide, 100 mM phosphate buffer pH 7.0, 1 hour, 30° C.
Experimental: In the following examples, the amidase activity was determined by the following procedure. To 100 mM phosphate buffer (pH 7.0) were added 1% N-benzylnipecotamide and an enzyme solution, and allowed to react for 1 hour at 30° C. Then, the solution was analyzed under high speed liquid chromatography analysis conditions A. Enzyme activity which produces 1 μmol of N-benzylnipecotic acid per 1 minute under these conditions was defined as 1 unit.
High Speed Liquid Chromatography Analysis Condition A
as §4
Eluant: 20 mM phosphate aqueous solution (pH 2.5)/acetonitrile=9/1
as §1, §5

| Molecule | amidase activity of HCS on the substrate (in words) [1] | Relative activity (%) [1] [%] | further results |
| --- | --- | --- | --- |
| NC(=O)C1Cc2ccccc2N1 (centres unmarked) | particularly strong amidase activity; also recorded: especially strong activity | 64 | conversion ratio [2]: 39.2% |
| O=C(NCc1ccccc1)C1CCCNC1 (racemic) [(R,S)-N-benzylnipecotamide] | particularly strong amidase activity; also recorded: especially strong activity | 49 | conversion ratio ([3]; 1% substrate, 100 mM phosphate buffer pH 7.0, 30° C.): 50.1% |
| NC(=O)C(O)c1ccccc1 (racemic) [(R,S)-mandelic acid amide] | particularly strong amidase activity; also recorded: especially strong activity | 49 | – |
| NC(=O)C1CCCNC1 (racemic) [(R,S)-nipecotamide] | particularly strong amidase activity; also recorded: especially strong activity | 100 | conversion ratio [4]: 50.2% |
| CC(C(N)=O)c1ccccc1 (racemic) [(R,S)-phenyl propionic acid amide] | – | 309 | amidase activity of HCS on the substrate (in words) ([1]; listed as phenyl propionic acid amide): particularly strong amidase activity; amidase activity of HCS on the substrate (in words) ([1]; listed as phenylpropionic acid amide): especially strong activity; conversion ratio [2]: 36.0% |
| NC(=O)C1CCCCN1 (racemic) [(R,S)-pipecolic acid amide] | particularly strong amidase activity; also recorded: especially strong activity | 34 | conversion ratio [2]: 18.3% |
| CC(N)C(N)=O (racemic) [D,L-alanine amide] | – | 0 | – |
| CC(C)CC(N)C(N)=O (racemic) [D,L-leucine amide] | – | 0 | – |
| NC(=O)C(N)Cc1ccccc1 (racemic) [D,L-phenylalanine amide] | weak amidase activity | 3.4 | – |
| NC(=O)C1CCCN1 (racemic) [D,L-proline amide] | – | 0 | – |
| NC(=O)CC(N)c1ccccc1 (racemic) [D,L-β-phenylalanine amide] | – | 0 | – |
| O=C(O)[C@H]1Cc2ccccc2N1 [(R)-indoline carboxylic acid] | – | – | optical purity [2]: 97.8 % e.e. |
| NC(=O)[C@@H]1CCCNC1 [(R)-nipecotamide] | – | – | optical purity [4]: 98.3 % e.e. |
| O=C(O)[C@H]1CCCCN1 [(R)-pipecolic acid] | – | – | optical purity [2]: 80.1 % e.e. |
| O=C(NCc1ccccc1)[C@@H]1CCCNC1 [(R)—N-benzylnipecotamide] | – | – | optical purity ([3]; residual amide, pH 7.0, 30° C.): 99.4 % e.e. |
| O=C(O)[C@H]1CCCNC1 [(S)-nipecotic acid] | – | – | optical purity [4]: 97.1 % e.e. |
| C[C@H](C(=O)O)c1ccccc1 [(S)-phenyl propionic acid] | – | – | optical purity [2]: 89.1 % e.e. |
| NC(=O)c1ccccc1 [benzamide] | weak amidase activity | 5.4 | – |
| CC(C)C(N)=O [isobutylamide] | particularly strong amidase activity; also recorded: especially strong activity | 230 | – |
| CCC(N)=O [propionic acid amide] | particularly strong amidase activity; also recorded: especially strong activity | 59 | – |
| HCS: amidase purified from Cupriavidus sp. KNK-J915 strain (FERM BP-10739), amino acid sequence SEQ ID NO:1 (protein, listed as Cupriavidus sp.) MPTDIQTLQTRLHDGAVSRADVIAQAAQHAQQPDAHAVFLHTTFDTAAQVAKAADAACLAGKPLHPLAGLPVSVKDLFNIAGEASRAGSPVRSDALAATADATVVRRLRESGAALVGRTNMTEFAFSGVGINPHFGTPVNPADKQVARIPGGSSSGAAVSVALGLAVAGLGSDTGGSIRIPAALCGLTGFKPTARRVPLDGAFPLSYTLDTACAMARTVQDCVLVDSVIADQAVLPVIKGAAGIRLAIPRQVLLDDLDDTVARAFDRALGRLSAAGVQIEHIDLPELAELATINASGGFTAAEAHAIHRHVLATRREQYDPRVASRIDRGAAMSAADYVDLMRARLDWITRVAARLEGFDAVACPTVPMVAPPIAPLVADDALFFHTNALLLRNTSAFNFLDGCSISLPCHQPDELPVGLMLSHGALRDAQLLGTAIALESIVKPAA | – | – | Thermal stability: temperature at which stable [5]: ≤ 50 °C; specific activity of the purified enzyme [6]: 1.7 U/mg-protein |
